Here are results for 38 compounds from US20070037752A1, “Novel alanyl-amino peptidase inhibitors for functionally influencing different cells and treating immunological, inflammatory, neuronal, and other diseases” (priority 2003, published 2007).

Like-named read-outs stand apart in the source and are kept apart here.

For this experiment, the target named is alanyl aminopeptidases (APN) (Homo sapiens, UniProt P15144). The experiment is described as follows: Inhibition of alanyl aminopeptidase enzymatic activity, fluorogenic substrate (Ala)2-rhodamine 110. It counts as biochemical. On the procedure: The inhibition characteristics measured are referred to as IC-50 values or ID50 values (the latter marked with “*”) for said enzyme. The enzymatic activity was determined by means of the fluorogenic substrate/product (Ala)2-rhodamine 110.
Sequence of alanyl aminopeptidases (APN) (P15144 whole entry, species assumed): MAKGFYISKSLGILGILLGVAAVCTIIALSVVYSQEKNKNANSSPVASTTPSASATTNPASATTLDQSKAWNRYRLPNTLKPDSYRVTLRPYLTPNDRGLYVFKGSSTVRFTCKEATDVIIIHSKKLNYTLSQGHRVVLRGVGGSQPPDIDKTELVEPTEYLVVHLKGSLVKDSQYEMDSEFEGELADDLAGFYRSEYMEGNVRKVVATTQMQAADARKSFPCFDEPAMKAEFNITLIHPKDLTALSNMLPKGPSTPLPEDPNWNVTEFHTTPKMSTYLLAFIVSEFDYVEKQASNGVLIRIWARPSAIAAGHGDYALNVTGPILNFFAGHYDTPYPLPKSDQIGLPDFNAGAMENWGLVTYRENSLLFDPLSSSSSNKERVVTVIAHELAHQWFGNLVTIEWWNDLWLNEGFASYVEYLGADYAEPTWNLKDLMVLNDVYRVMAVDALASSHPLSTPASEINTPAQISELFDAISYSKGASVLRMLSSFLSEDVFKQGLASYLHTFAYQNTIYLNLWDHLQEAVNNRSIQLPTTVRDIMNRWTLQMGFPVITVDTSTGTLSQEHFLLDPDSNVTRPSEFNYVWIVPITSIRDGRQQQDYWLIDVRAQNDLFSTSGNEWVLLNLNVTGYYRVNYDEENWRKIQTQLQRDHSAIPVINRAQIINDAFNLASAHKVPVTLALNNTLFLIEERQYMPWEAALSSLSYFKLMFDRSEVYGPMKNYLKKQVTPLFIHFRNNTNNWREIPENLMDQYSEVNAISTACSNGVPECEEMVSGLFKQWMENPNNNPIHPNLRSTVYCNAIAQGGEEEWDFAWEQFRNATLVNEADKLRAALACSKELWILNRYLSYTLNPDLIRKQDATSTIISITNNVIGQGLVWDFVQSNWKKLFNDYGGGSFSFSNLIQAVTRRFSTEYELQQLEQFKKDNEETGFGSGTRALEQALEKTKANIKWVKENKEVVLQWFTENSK

Setting [1] is: Table 1, unstarred values, read-out: IC50APN.
The mark [2] stands for this setting: Table 3, starred values = ID50, read-out: ID50 APN (values marked with *).
The mark [3] stands for this setting: Table 3, unstarred values, read-out: IC50APN.

As for `Cc1cc(Cl)ccc1OCCC(=O)NO` [A1.002], under setting [1], the IC50 came out at 5.6 µM.
As to `O=C(CCOC(c1ccccc1)c1ccc(Br)cc1)NO` (centres unmarked) [A1.003], the IC50 under setting [1] stood at 6.3 µM.
For the compound `O=C(COc1ccc(Br)cc1)NO` [A1.004], the IC50 under setting [1] was 6.4 µM.
On the same count and under the same terms, as for `O=C(CCOC(c1ccccc1)c1ccc(Cl)cc1)NO` (centres unmarked) [A1.005], the figure is 7.3 µM; as for `CCOc1ccc(CC(=O)NO)cc1` [A1.006], 7.5 µM; as for `O=C(ON1C(=O)CCC1=O)C1CCC(=O)N1C(=O)OCc1ccccc1` (centres unmarked) [A1.007], 8.4 µM.
For `O=C(CS(=O)(=O)c1ccc(Cl)cc1)NO` [A1.008], the IC50 under setting [1] came to 11.5 µM.
With `O=C(CCCCCN1C(=O)c2cccc3cccc(c23)C1=O)NO` [A1.009], the IC50 under setting [1] is 14.1 µM.
On to `Cc1ccc(C(OCCC(=O)NO)c2ccccc2)cc1` (centres unmarked) [A1.010], for which, under setting [1], the IC50 came out at 14.2 µM.
For the compound `O=C(O)C1N=NC(c2ccc(F)cc2)=CN1O` (centres unmarked) [A1.011], under setting [1], the IC50 is 17.1 µM.
Turning to `O=C(CCOC(c1ccc(F)cc1)c1ccc(F)cc1)NO` [A1.012], the IC50 under setting [1] stood at 21.8 µM.
With `CC(CCc1ccccc1)C(=O)NO` (centres unmarked) [A1.013], the IC50 under setting [1] came to 25.2 µM.
For `COc1ccc(C(OCCC(=O)NO)c2ccccc2)cc1` (centres unmarked) [A1.014], the IC50 under setting [1] was determined as 33 µM.
Take `N#CCCCCCCCCC(=O)NO` [A1.015]: the IC50 under setting [1] amounted to 80.6 µM.
Regarding `CCCCc1noc2c1/C(=N/O)CC(c1ccccc1)C2` (centres unmarked) [A2.001], the IC50 (Table 2, read-out: IC50APN) was determined as 2.2 µM.
For the compound `C/C(=N/O)c1ccc2c(c1)OCCOCCOc1cc(/C(C)=N\O)ccc1OCCOCCO2` [A2.002], the IC50 (Table 2, read-out: IC50APN) was 8.6 µM.
With `Cc1ccc(/C=N/NC(=O)c2nnn(-c3nonc3N)c2C)o1` [A2.003], the IC50 (Table 2, read-out: IC50APN) is 10.9 µM.
With `COCc1nnn(-c2nonc2N)c1C(=O)N/N=C/c1ccco1` [A2.004], the IC50 (Table 2, read-out: IC50APN) is 12.5 µM.
Regarding `N/C(=N/OS(=O)(=O)c1ccc(C(F)(F)F)cc1)C1CSCCS1` (centres unmarked) [A2.006], the IC50 (Table 2, read-out: IC50APN) stood at 13.4 µM.
`N/C(=N\N=C\c1ccco1)c1nonc1N` [A2.007]: the IC50 (Table 2, read-out: IC50APN) was determined as 14.6 µM.
As to `Nc1nonc1-n1nnc(C(=O)N/N=C/c2ccco2)c1-c1ccccc1` [A2.008], the IC50 (Table 2, read-out: IC50APN) was 46.6 µM.
Regarding `COC(=O)CCC/C=C1/SC[C@@H](NC(=O)c2ccccc2)/C1=N/O` [A2.010], the IC50 (Table 2, read-out: IC50APN) turned out to be 93.6 µM.
On to `COC(=O)C1=C(N)N2C(=O)CSC2=C(C(=O)OC)C1` [A3.001], for which the IC50APN entry (Table 3, unstarred values) is listed as ““very high”.
Consider `CCOC(=O)c1ncn(C(=O)OC)c1N` [A3.002], for which the IC50 under setting [2] came to 0.9 µM.
Regarding `CC1=C(C#N)C(=O)N(CCO)C(=O)/C1=C\c1ccc(-c2cc(Cl)ccc2Cl)o1` [A3.003], under setting [2], the IC50 was determined as 1.2 µM.
`CCCCc1noc2c1/C(=N/O)CC(c1ccccc1)C2` (centres unmarked) [A3.006]: the IC50 under setting [2] is 2.2 µM.
On the same count and under the same terms, as for `CCOC(=O)c1nc[nH]c1N` [A3.007], the figure is 2.6 µM; as for `Nc1ccc2c(c1)C/C(=C\c1ccco1)C2=O` [A3.008], 2.6 µM.
Regarding `O=C(Nc1cccc(/N=C/c2cc(I)cc(I)c2O)c1)c1ccco1` [A3.009], the IC50 under setting [3] was 3 µM.
As to `C/C(Cn1nnc([N+](=O)[O-])n1)=N/NC(=O)COc1ccccc1[N+](=O)[O-]` [A3.010], under setting [3], the IC50 is 3.4 µM.
With `O=C(Nc1cccc(/N=C/c2cc(/N=N\c3ccccc3Cl)ccc2O)c1)c1ccco1` [A3.011], under setting [3], the IC50 came out at 3.6 µM.
Still for that read-out and setting: as for `CCOC(=O)c1nc(C)[nH]c1N` [A3.012], the figure is 4.3 µM; as for `Cc1cc(C)c(C)c(C(=O)COC(=O)c2ccc(-n3c(C)ccc3C)cc2)c1C` [A3.014], 4.5 µM; as for `COC(=O)C1=C(C(=O)OC)C(c2cc(Br)ccc2O)c2sc(O)nc2S1` (centres unmarked) [A3.015], 4.7 µM.
The same measure, in the same setting: as for `COc1ccc(/C=N/NC(=O)C2=C(C)Nc3ccccc3S2)cc1Cn1nc(C)c(Br)c1C` [A3.016], the figure is 4.8 µM.
For `O=C(Nc1ccc(NCc2cc(Cc3ccccc3Cl)cc(Br)c2O)cc1)c1ccco1` [A3.017], the IC50 under setting [3] is 4.9 µM.
In the case of `COC(=O)c1ccc(-c2ccc(/C=C3\C(=O)N(CCCO)C(=O)C(C#N)=C3C)o2)cc1` [A3.018], the IC50 under setting [3] came to 5 µM.
For the compound `O=C(CCC(=O)Nc1ccc(Br)cc1)N/N=C/c1ccco1` [A3.019], the IC50 under setting [3] amounted to 5.2 µM.
